Biological target: Aldo-keto reductase family 1 member B1 (Homo sapiens, UniProt P15121)
Test: SPR Assay
Conditions: pH 8.5
Protocol: The anti-His antibody (His Capture Kit, GE Healthcare) was immobilized on sensor chip CM5 (GE Healthcare), in a Biacore T200 or Biacore S200 instrument, to ∼10000 resonance units (RU) using a standard amine coupling procedure (Amine Coupling Kit, GE Healthcare). His-tagged aldose reductase (ALR2), at a concentration of 100 μg/mL, was captured on the anti-His antibody using dual injection consisting of a 3 min injection of protein followed by a 100 s activation with a mixture (1:1) of 0.2 M N-ethyl-N-(dimethylamino)propylcarbodiimide (EDC) and 50 mM N-hydroxysuccinimide (NHS), and final blocking with an injection of 1.0 Methanolamine (pH 8.5) for 100 s. […] For the interaction analysis, the compound concentrations ranged from 3 to 10000 nM with a 5-fold dilution step, using a single-cycle kinetic approach with three or five concentrations or injections per cycle.

Kd	SMILES
14 nM	O=C(O)COc1cc(Cl)ccc1C(=O)NCc1cccc([N+](=O)[O-])c1 [2-(5-chloro-2-{[(3-nitrophenyl)methyl]carbamoyl}phenoxy)acetic acid]
16 nM	NC(=O)[C@@H]1C[C@]2(NC(=O)NC2=O)c2cc(F)ccc2O1 [(2S,4S)-6-fluoro-2,5-dioxo-2,3-dihydrospiro[chromene-4,4-imidazolidine]-2-carboxamide]
23 nM	O=C(O)COc1cc(F)ccc1C(=O)Nc1cccc([N+](=O)[O-])c1 [ALR2 inhibitor, 8]
15 nM	O=C(O)COc1ccc(-c2ccccc2)cc1C(=O)NCc1cccc([N+](=O)[O-])c1 [ALR2 inhibitor, 11]

— BindingDB's records for doi:10.1021/acschembio.7b00062 (Philipps-Universität Marburg, 2017)
